Experimental data as given in ChEMBL document CHEMBL3091347, “Comparison of Multiple Linear Regressions and Neural Networks based QSAR models for the design of new antitubercular compounds” (Eur J Med Chem, 2013).
In brackets after ≈: the same amount, converted by molar mass.

Columns and labels:
[1] = tested on: Mycobacterium tuberculosis; experiment: Antitubercular activity against Mycobacterium tuberculosis BCG; assay type: functional
[2] = Lipophilicity, log P of the compound; details: octanol/water
[3] = tested on: Mycobacterium tuberculosis; experiment: Antitubercular activity against Mycobacterium tuberculosis; assay type: functional; details: for MIC: Mycobacterium tuberculosis

SMILES | MIC [1] | log(1/MIC) [1] | logP ([2]; logP) | logP [2] | log(1/MIC) [3] | MIC [3]
NNC(=O)c1ccncn1 | 20 µg/mL (≈ 145 µM) | -1.301 | -2.87 |  |  | 
NNC(=O)c1ccc([N+](=O)[O-])cc1 | 12 µg/mL (≈ 66.2 µM) | -1.079 | -1.1 |  |  | 
NNC(=O)/C=C/c1ccccc1 | 0.4 µg/mL (≈ 2.47 µM) | 0.3979 | -1.23 |  |  | 
NNC(=O)C1CCNCC1 | 600 µg/mL (≈ 4190 µM) | -2.778 | -3.46 |  |  | 
NNC(=O)c1ccc(O)cc1 | 12 µg/mL (≈ 78.9 µM) | -1.079 |  | -1.51 |  | 
NNC(=O)c1ccc(Br)cc1 | 12 µg/mL (≈ 55.8 µM) | -1.079 | 0.018 |  |  | 
COc1cc(C(=O)NN)ccc1O | 30 µg/mL (≈ 165 µM) | -1.477 | -1.79 |  |  | 
NNC(=O)c1cccc(N)c1 | 3 µg/mL (≈ 19.8 µM) | -0.4771 | -2.07 |  |  | 
NNC(=O)c1ccncc1N | 1.5 µg/mL (≈ 9.86 µM) | -0.1761 | -3.12 |  |  | 
NNC(=O)c1ccc(Cl)cc1 | 3 µg/mL (≈ 17.6 µM) | -0.4771 |  | -0.132 |  | 
NNC(=O)c1ccccc1N | 30 µg/mL (≈ 198 µM) | -1.477 | -2.07 |  |  | 
NNC(=O)Cc1ccncc1 | 100 µg/mL (≈ 662 µM) | -2 | -2.69 |  |  | 
Cc1ccc(C)n1NC(=O)c1ccco1 | 15 µg/mL (≈ 73.4 µM) | -1.176 | 3.04 |  |  | 
O=C(NNS(=O)(=O)c1ccc([N+](=O)[O-])cc1)c1ccncc1 | 60 µg/mL (≈ 186 µM) | -1.778 | -1.54 |  |  | 
O=C(NNS(=O)(=O)c1ccccc1)c1ccncc1 | 3 µg/mL (≈ 10.8 µM) | -0.4771 | -1.29 |  |  | 
COc1ccc(C(=O)NN)cc1 | 8 µg/mL (≈ 48.1 µM) | -0.9031 |  |  |  | 
Cc1ccc(C)n1NC(=O)c1cccs1 | 40 µg/mL (≈ 182 µM) | -1.602 | 1.98 |  |  | 
NNC(=O)c1nc2ccccc2s1 | 8 µg/mL (≈ 41.4 µM) | -0.9031 | -1.08 |  |  | 
NNC(=O)c1ccc(N)cc1 | 6 µg/mL (≈ 39.7 µM) | -0.7782 |  | -2.07 |  | 
Cc1c(C(=O)NN)sc(C(=O)NN)c1C | 30 µg/mL (≈ 131 µM) | -1.477 |  | -2.888 |  | 
O=C(NNC(=O)c1ccncc1)c1ccncc1 | 8 µg/mL (≈ 33 µM) | -0.9031 |  | -2.984 |  | 
CC(C)N(N)C(=O)c1ccco1 | 15 µg/mL (≈ 89.2 µM) | -1.176 | 0.115 |  |  | 

SMILES | MIC [1] | log(1/MIC) [1] | logP ([2]; logP) | logP [2] | log(1/MIC) [3] | MIC [3]
CCCCC/C(C)=N\NC(=O)c1cccs1 | 3 µg/mL (≈ 12.6 µM) | -0.4771 | 1.71 |  |  | 
O=C(NN=C1CCCCC1)c1cccs1 | 3 µg/mL (≈ 13.5 µM) | -0.4771 | 0.789 |  |  | 
CC(C)(C#N)NNC(=O)c1cccs1 | 3 µg/mL (≈ 14.3 µM) | -0.4771 | 0.147 |  |  | 
O=C(N/N=C/C(O)C(O)C(O)C(O)CO)c1cccs1 (stereo not drawn) | 0.6 µg/mL (≈ 1.97 µM) | 0.2218 |  | -4.917 |  | 
CNC1C(OC2C(OC3C(O)C(O)C(NC(=N)N)C(O)C3NC(=N)N)OC(C)C2(O)/C=N/NC(=O)c2cccs2)OC(CO)C(O)C1O (stereo not drawn) | 0.25 µg/mL (≈ 0.354 µM) | 0.6021 |  |  |  | 
NNC(=O)c1ccc[nH]1 | 60 µg/mL (≈ 479 µM) | -1.778 | -1.99 |  |  | 
NNC(=O)Cc1cc2ccccc2[nH]1 | 60 µg/mL (≈ 317 µM) | -1.778 | -1.61 |  |  | 
NNC(=O)c1nc2ccccc2[nH]1 | 15 µg/mL (≈ 85.1 µM) | -1.176 | -1.73 |  |  | 
NNC(=O)c1nccnc1C(=O)NN | 15 µg/mL (≈ 76.5 µM) | -1.176 |  | -5.666 |  | 
NNC(=O)c1cnc(N)s1 | 6 µg/mL (≈ 37.9 µM) | -0.7782 | -2.78 |  |  | 
NNC(=O)c1csc(N)n1 | 3 µg/mL (≈ 19 µM) | -0.4771 | -2.69 |  |  | 
NNC(=O)c1ccc(Br)o1 | 12 µg/mL (≈ 58.5 µM) | -1.079 | 1.62 |  |  | 
NNC(=O)c1ccc(C(=O)NN)o1 | 6 µg/mL (≈ 32.6 µM) | -0.7782 | -1.63 |  |  | 
NNC(=O)/C=C/c1ccco1 | 3 µg/mL (≈ 19.7 µM) | -0.4771 | -2.02 |  |  | 
CC(C)(C#N)NNC(=O)c1ccco1 | 3 µg/mL (≈ 15.5 µM) | -0.4771 | 1.21 |  |  | 
CC(C)=NNC(=O)c1ccco1 | 4 µg/mL (≈ 24.1 µM) | -0.6021 | 0.656 |  |  | 
CC(=O)Nc1ccc(/C=N\NC(=O)c2ccco2)cc1 | 4.5 µg/mL (≈ 16.6 µM) | -0.6532 | 2.64 |  |  | 
CC(=O)NNC(=O)c1ccco1 |  |  | -1.26 |  | -2.78 | 600 µg/mL (≈ 3570 µM)
NNC(=O)c1cc2ccccc2o1 | 2 µg/mL (≈ 11.4 µM) | -0.301 | 0.835 |  |  | 
NNC(=O)c1ccsc1 | 8 µg/mL (≈ 56.3 µM) | -0.9031 | -1.2 |  |  | 
NNC(=O)Cc1ccsc1 | 100 µg/mL (≈ 640 µM) | -2 | -1.57 |  |  | 
CC(C)/C=N/NC(=O)c1cccs1 | 1.2 µg/mL (≈ 6.11 µM) | -0.07918 | 0.125 |  |  | 

SMILES | MIC [1] | log(1/MIC) [1] | logP ([2]; logP) | logP [2] | log(1/MIC) [3] | MIC [3]
CCCCCC/C=N/NC(=O)c1cccs1 | 6 µg/mL (≈ 25.2 µM) | -0.7782 | 1.84 |  |  | 
NNC(=O)c1ccc(C(=O)NN)cc1 | 3 µg/mL (≈ 15.4 µM) | -0.4771 | -3.83 |  |  | 
NNC(=O)C(O)(c1ccccc1)c1ccccc1 | 100 µg/mL (≈ 413 µM) | -2 | 0.196 |  |  | 
CCCCCCCCCCCCNNC(=O)c1ccncc1 | 0.05 µg/mL (≈ 0.164 µM) | 1.301 | 3.64 |  |  | 
O=C(NNCc1ccco1)c1ccncc1 | 15 µg/mL (≈ 69.1 µM) | -1.176 | -0.641 |  |  | 
CC(=O)N1CCC(C(=O)NN)CC1 | 6 µg/mL (≈ 32.4 µM) | -0.7782 | -3.98 |  |  | 
CC(=O)NN | 150 µg/mL (≈ 2020 µM) | -2.176 | -2.78 |  |  | 
NNC(=O)/C=C/C(=O)NN |  |  |  |  | -1.9 | 80 µg/mL (≈ 555 µM)
NNC(=O)CCC(=O)NN | 25 µg/mL (≈ 171 µM) | -1.398 |  |  |  | 
NNC(=O)CCCCCCCCCCC(=O)NN | 3 µg/mL (≈ 11.6 µM) | -0.4771 | -2.03 |  |  | 
NNC(=O)C1CCC(C(=O)NN)CC1 (stereo not drawn) | 300 µg/mL (≈ 1500 µM) | -2.477 |  | -4.55 |  | 
NNC(=O)c1ccc(I)cc1 | 6 µg/mL (≈ 22.9 µM) | -0.7782 | 0.278 |  |  | 
CN(C)c1ccc(C(=O)NN)cc1 | 6 µg/mL (≈ 33.5 µM) | -0.7782 | -0.65 |  |  | 
O=C(N/N=C(\CO)C(O)C(O)C(O)CO)c1ccncc1 (stereo not drawn) | 0.06 µg/mL (≈ 0.2 µM) | 1.222 |  |  |  | 
O=C(N/N=C/C(O)C(O)C(OC1OC(CO)C(O)C(O)C1O)C(O)CO)c1ccncc1 (stereo not drawn) | 0.15 µg/mL (≈ 0.325 µM) | 0.8239 |  |  |  | 
CNC1C(OC2C(OC3C(O)C(O)C(NC(=N)N)C(O)C3NC(=N)N)OC(C)C2(O)/C=N\NC(=O)c2ccncc2)OC(CO)C(O)C1O (stereo not drawn) |  |  |  |  | 0.82 | 0.15 µg/mL (≈ 0.214 µM)
Cc1ccc(C)n1NC(=O)c1ccncc1 | 10 µg/mL (≈ 46.5 µM) | -1 | 0.854 |  |  | 
O=CNNC(=O)c1ccncc1 | 3 µg/mL (≈ 18.2 µM) | -0.4771 | -2.99 |  |  | 
CCCCCC/C=N/NC(=O)c1ccncc1 | 0.03 µg/mL (≈ 0.129 µM) | 1.523 | 0.719 |  |  | 
C/C=C/CCCCCCC/C=N/NC(=O)c1ccncc1 | 0.15 µg/mL (≈ 0.522 µM) | 0.8239 | 2.29 |  |  | 
CCCCCCCCCC/C=N/NC(=O)c1ccncc1 | 0.3 µg/mL (≈ 1.04 µM) | 0.5229 | 2.83 |  |  | 
CC1CCC(=NNC(=O)c2ccncc2)CC1 (stereo not drawn) | 0.07 µg/mL (≈ 0.303 µM) | 1.1549 | 0.315 |  |  | 

SMILES | MIC [1] | log(1/MIC) [1] | logP ([2]; logP) | logP [2] | log(1/MIC) [3] | MIC [3]
CC(C)COc1ccc(/C=N/NC(=O)c2ccncc2)cc1 | 0.2 µg/mL (≈ 0.673 µM) | 0.699 | 2.81 |  |  | 
CC(C)CCOc1ccc(/C=N/NC(=O)c2ccncc2)cc1 | 0.05 µg/mL (≈ 0.161 µM) | 1.301 | 3.34 |  |  | 
N/N=C(\CC(=O)c1ccncc1)C(=O)c1ccncc1 | 15 µg/mL (≈ 55.9 µM) | -1.176 | -3.16 |  |  | 
CC(C(=O)c1ccncc1)C(/C=N/N)C(=O)c1ccncc1 (stereo not drawn) | 0.5 µg/mL (≈ 1.69 µM) | 0.301 | -2.43 |  |  | 
CC(=O)C/C(C)=N/NC(=O)c1ccncc1 | 0.8 µg/mL (≈ 3.65 µM) | 0.09691 | -3.02 |  |  | 
O=C(N/N=C/C(O)C(O)C(O)CO)c1ccncc1 (stereo not drawn) | 0.05 µg/mL (≈ 0.186 µM) | 1.301 |  | -5.33 |  | 
O=C(N/N=C\C(O)C(O)C(O)C(O)CO)c1ccncc1 (stereo not drawn) | 0.15 µg/mL (≈ 0.501 µM) | 0.8239 |  |  |  | 
CC(=O)Nc1ccc(/C=N\NC(=O)c2ccncc2)cc1 | 0.08 µg/mL (≈ 0.283 µM) | 1.097 | 0.457 |  |  | 
CCC(CC)NNC(=O)c1ccncc1 | 3 µg/mL (≈ 14.5 µM) | -0.4771 | -0.19 |  |  | 
O=C(NNC1CCCCC1)c1ccncc1 | 5 µg/mL (≈ 22.8 µM) | -0.699 | -0.055 |  |  | 
CC1CCCC(NNC(=O)c2ccncc2)C1 (stereo not drawn) | 4 µg/mL (≈ 17.1 µM) | -0.6021 | 0.464 |  |  | 
CC1CCC(NNC(=O)c2ccncc2)CC1 (stereo not drawn) | 5 µg/mL (≈ 21.4 µM) | -0.699 | 0.594 |  |  | 
NNC(=O)c1cncs1 | 10 µg/mL (≈ 69.8 µM) | -1 | -2.2 |  |  | 
NNC(=O)C(O)c1ccccc1 (stereo not drawn) | 40 µg/mL (≈ 241 µM) | -1.602 | -1.37 |  |  | 
NNC(=O)Cc1ccc(Cl)cc1 | 10 µg/mL (≈ 54.2 µM) | -1 | -0.503 |  |  | 
NNC(=O)C1Cc2ccccc2O1 (stereo not drawn) | 22.5 µg/mL (≈ 126 µM) | -1.352 | -1.32 |  |  | 
Cn1cncc1C(=O)NN | 300 µg/mL (≈ 2140 µM) | -2.477 | -2.55 |  |  | 
NNC(=O)c1cscn1 | 15 µg/mL (≈ 105 µM) | -1.176 | -2.05 |  |  | 
O=C(NNC(=O)c1cccs1)c1cccs1 | 15 µg/mL (≈ 59.4 µM) | -1.176 | -0.738 |  |  | 
NNC(=O)c1cccnc1 [NICOTINIC ACID HYDRAZIDE] | 2 µg/mL (≈ 14.6 µM) | -0.301 |  | -2.32 |  | 
NNC(=O)c1cnccn1 [PYRAZINE CARBOXYLIC ACID HYDRAZIDE] | 1.5 µg/mL (≈ 10.9 µM) | -0.1761 | -2.87 |  |  | 
